Laboratory results reported in patent US9725459B2, “3-oxo-tetrahydro-furo[3,2-B]pyrrol-4(5H)-yl) derivatives I” (GRÜNENTHAL GMBH, priority 2014, dated 2017).
Where two headings read alike, the source gives them in different places.

Experiments:
Type in all cases: biochemical
human cathepsin S (CatS) = human cathepsin S (CatS) (Homo sapiens (Human), UniProt P25774); assay: CatS functional enzyme assay; conditions: for Selectivity Ki(hCatS)/Ki(hCatK): ratio Ki(hCatS)/Ki(hCatK); for Ki: read-out: hCatS, Ki
Method: Reference and test compounds were assayed for inhibitory potency (IC50) against human cathepsins using the following assay setups: Recombinant human cathepsins (CatS, CatK, CatL) were purchased from a Enzo Life Sciences. […] For CatS, the enzyme (0.0007 mU/well) was incubated with fluorogeninc substrate (Z-VVR-AMC, 5 μM) at RT for 10 min. For CatK the enzyme (0.00175 mU/well) was incubated with fluorogeninc substrate (Z-FR-AMC, 40 μM) at RT for 10 min. For CatL, the enzyme (0.000874 mU/well) was incubated with fluorogeninc substrate (Z-VVR-AMC, 40 μM) at RT for 10 min. Flourogenic substrate turnover was detected using a microplate reader (Synergy™ H4, BioTek). Ki values were calculated using the Cheng Prusoff equation (Cheng & Prosoff 1973).

human cathepsin L (CatL) = human cathepsin L (CatL) (Homo sapiens (Human), UniProt P07711); assay: CatL functional enzyme assay; conditions: read-out: hCatL, inhibition [%] at 31.6 μM
Method: (§1) Reference and test compounds were assayed for inhibitory potency (IC50) against human cathepsins using the following assay setups:
(§2) Recombinant human cathepsins (CatS, CatK, CatL) were purchased from a Enzo Life Sciences. All assays were carried out in 96-well format using a buffer of 50 mM KH2PO4, 50 mM NaCl, 2 mM EDTA, 0.5 mM DTT and 1% Triton-X-100, pH 6.5 for Cathepsin S and a buffer of 50 mM NaOAc, 10 mM EDTA, 1 mM DTT and 0.01% Triton-X-100, pH 5.5 for CatK/L/B. For CatS, the enzyme (0.0007 mU/well) was incubated with fluorogeninc substrate (Z-VVR-AMC, 5 μM) at RT for 10 min. For CatK the enzyme (0.00175 mU/well) was incubated with fluorogeninc substrate (Z-FR-AMC, 40 μM) at RT for 10 min. For CatL, the enzyme (0.000874 mU/well) was incubated with fluorogeninc substrate (Z-VVR-AMC, 40 μM) at RT for 10 min. Flourogenic substrate turnover was detected using a microplate reader (Synergy™ H4, BioTek). Ki values were calculated using the Cheng Prusoff equation (Cheng & Prosoff 1973).

human cathepsin K (CatK) = human cathepsin K (CatK) (Homo sapiens (Human), UniProt P43235); assay: CatK functional enzyme assay; conditions: recombinant human CatK, substrate Z-FR-AMC 40 μM, pH 5.5; Ki by Cheng Prusoff equation; read-out: hCatK, Ki
Method: as §1, §2

[1] = recombinant human CatS, substrate Z-VVR-AMC 5 μM, pH 6.5, Ki by Cheng Prusoff equation

Sequence of human cathepsin L (CatL) (P07711 114-333): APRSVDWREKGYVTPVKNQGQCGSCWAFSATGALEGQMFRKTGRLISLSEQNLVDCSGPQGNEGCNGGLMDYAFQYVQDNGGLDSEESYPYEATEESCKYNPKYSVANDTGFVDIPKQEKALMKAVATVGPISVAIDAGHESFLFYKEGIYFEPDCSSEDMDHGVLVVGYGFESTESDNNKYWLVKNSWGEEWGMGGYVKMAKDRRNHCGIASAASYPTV
Sequence of human cathepsin S (CatS) (P25774 115-331): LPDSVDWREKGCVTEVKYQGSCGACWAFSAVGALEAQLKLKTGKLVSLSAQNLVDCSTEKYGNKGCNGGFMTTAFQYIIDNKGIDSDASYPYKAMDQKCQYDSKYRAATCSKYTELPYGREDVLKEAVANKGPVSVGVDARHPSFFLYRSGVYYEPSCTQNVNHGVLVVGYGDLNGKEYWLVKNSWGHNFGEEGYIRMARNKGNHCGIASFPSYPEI
Sequence of human cathepsin K (CatK) (P43235 115-329): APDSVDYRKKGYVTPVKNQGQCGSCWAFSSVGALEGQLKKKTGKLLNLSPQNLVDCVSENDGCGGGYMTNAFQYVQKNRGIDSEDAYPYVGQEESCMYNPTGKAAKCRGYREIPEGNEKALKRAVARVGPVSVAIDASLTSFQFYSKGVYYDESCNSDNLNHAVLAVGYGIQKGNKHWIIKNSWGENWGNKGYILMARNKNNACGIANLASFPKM

Structure (SMILES)	Selectivity Ki(hCatS)/Ki(hCatK) (human cathepsin S (CatS))	Ki (human cathepsin S (CatS)) [µM]	inhibition at 31.6 µM (human cathepsin L (CatL)) [%]	Ki (human cathepsin K (CatK)) [µM]	Ki (human cathepsin S (CatS); [1]) [µM]
O=C(N[C@H](C(=O)N1C[C@H](Cl)[C@H]2OCC(=O)[C@H]21)C1CCCCC1)c1cc(F)c(-c2cncnc2)s1 [Example 37, N-((S)-2-((3aS,6S,6aS)-6-chloro-3-oxotetrahydro-2H-furo[3,2-b]pyrrol-4(5H)-yl)-1-cyclohexyl-2-oxoethyl)-4-fluoro-5-(pyrimidin-5-yl)thiophene-2-carboxamide]	26.7	0.401	29	0.015	–
O=C(N[C@H](C(=O)N1C[C@H](Cl)[C@H]2OCC(=O)[C@H]21)C1CCCCC1)c1ccc(-c2ccc(F)nn2)s1 [Example 38, N-((S)-2-((3aS,6S,6aS)-6-chloro-3-oxotetrahydro-2H-furo[3,2-b]pyrrol-4(5H)-yl)-1-cyclohexyl-2-oxoethyl)-5-(6-fluoropyridazin-3-yl)thiophene-2-carboxamide]	10.7	–	30	0.02	0.213
N#Cc1cncc(-c2ccc(C(=O)N[C@H](C(=O)N3C[C@H](Cl)[C@H]4OCC(=O)[C@H]43)C3CCCCC3)s2)c1 [Example 39, N-((S)-2-((3aS,6S,6aS)-6-chloro-3-oxotetrahydro-2H-furo[3,2-b]pyrrol-4(5H)-yl)-1-cyclohexyl-2-oxoethyl)-5-(5-cyanopyridin-3-yl)thiophene-2-carboxamide]	11.8	–	19	0.019	0.225
O=C(N[C@H](C(=O)N1C[C@H](Cl)[C@H]2OCC(=O)[C@H]21)C1CCCCC1)c1cc(F)c(-c2ccnnc2)s1 [Example 40, N-((S)-2-((3aS,6S,6aS)-6-chloro-3-oxotetrahydro-2H-furo[3,2-b]pyrrol-4(5H)-yl)-1-cyclohexyl-2-oxoethyl)-4-fluoro-5-(pyridazin-4-yl)thiophene-2-carboxamide]	37.8	–	39	0.012	0.453
Cc1ncc(-c2cnc(C(=O)N[C@H](C(=O)N3C[C@H](Cl)[C@H]4OCC(=O)[C@H]43)C3CCCCC3)s2)cn1 [Example 41, N-((S)-2-((3aS,6S,6aS)-6-chloro-3-oxotetrahydro-2H-furo[3,2-b]pyrrol-4(5H)-yl)-1-cyclohexyl-2-oxoethyl)-5-(2-methylpyrimidin-5-yl)thiazole-2-carboxamide]	–	–	25	0.026	0.144
Cc1ccc(-c2cnc(C(=O)N[C@H](C(=O)N3C[C@H](Cl)[C@H]4OCC(=O)[C@H]43)C3CCCCC3)s2)cn1 [Example 42, N-((S)-2-((3aS,6S,6aS)-6-chloro-3-oxotetrahydro-2H-furo[3,2-b]pyrrol-4(5H)-yl)-1-cyclohexyl-2-oxoethyl)-5-(6-methylpyridin-3-yl)thiazole-2-carboxamide]	25.4	–	18	0.014	0.356
N#Cc1cncc(-c2cnc(C(=O)N[C@H](C(=O)N3C[C@H](Cl)[C@H]4OCC(=O)[C@H]43)C3CCCCC3)s2)c1 [Example 43, N-((S)-2-((3aS,6S,6aS)-6-chloro-3-oxotetrahydro-2H-furo[3,2-b]pyrrol-4(5H)-yl)-1-cyclohexyl-2-oxoethyl)-5-(5-cyanopyridin-3-yl)thiazole-2-carboxamide]	3.2	–	16	0.243	0.769
Cc1cnnc(-c2ccc(C(=O)N[C@H](C(=O)N3C[C@H](Cl)[C@H]4OCC(=O)[C@H]43)C3CCCCC3)s2)c1 [Example 44, N-((S)-2-((3aS,6S,6aS)-6-chloro-3-oxotetrahydro-2H-furo[3,2-b]pyrrol-4(5H)-yl)-1-cyclohexyl-2-oxoethyl)-5-(5-methylpyridazin-3-yl)thiophene-2-carboxamide]	4.7	–	33	0.015	0.07
O=C(N[C@H](C(=O)N1C[C@H](Cl)[C@H]2OCC(=O)[C@H]21)C1CCCCC1)c1ncc(-c2cccnc2)s1 [Example 45, N-((S)-2-((3aS,6S,6aS)-6-chloro-3-oxotetrahydro-2H-furo[3,2-b]pyrrol-4(5H)-yl)-1-cyclohexyl-2-oxoethyl)-5-(pyridin-3-yl)thiazole-2-carboxamide]	32.8	–	26	0.008	0.262
O=C(N[C@H](C(=O)N1C[C@H](Cl)[C@H]2OCC(=O)[C@H]21)C1CCCCC1)c1ncc(-c2ccccn2)s1 [Example 46, N-((S)-2-((3aS,6S,6aS)-6-chloro-3-oxotetrahydro-2H-furo[3,2-b]pyrrol-4(5H)-yl)-1-cyclohexyl-2-oxoethyl)-5-(pyridin-2-yl)thiazole-2-carboxamide]	45.9	–	6	0.009	0.413
O=C(N[C@H](C(=O)N1C[C@H](Cl)[C@H]2OCC(=O)[C@H]21)C1CCCCC1)c1ncc(-c2cncc(F)c2)s1 [Example 47, N-((S)-2-((3aS,6S,6aS)-6-chloro-3-oxotetrahydro-2H-furo[3,2-b]pyrrol-4(5H)-yl)-1-cyclohexyl-2-oxoethyl)-5-(5-fluoropyridin-3-yl)thiazole-2-carboxamide]	11.1	–	28	0.02	0.221
O=C(N[C@H](C(=O)N1C[C@H](Cl)[C@H]2OCC(=O)[C@H]21)C1CCCCC1)c1ncc(-c2cnccn2)s1 [Example 48, N-((S)-2-((3aS,6S,6aS)-6-chloro-3-oxotetrahydro-2H-furo[3,2-b]pyrrol-4(5H)-yl)-1-cyclohexyl-2-oxoethyl)-5-(pyrazin-2-yl)thiazole-2-carboxamide]	17.3	–	7	0.014	0.242
O=C(N[C@H](C(=O)N1C[C@H](Cl)[C@H]2OCC(=O)[C@H]21)C1CCCCC1)c1ncc(-c2ccncc2)s1 [Example 49, N-((S)-2-((3aS,6S,6aS)-6-chloro-3-oxotetrahydro-2H-furo[3,2-b]pyrrol-4(5H)-yl)-1-cyclohexyl-2-oxoethyl)-5-(pyridin-4-yl)thiazole-2-carboxamide]	41.8	–	4	0.009	0.376
O=C(N[C@H](C(=O)N1C[C@H](Cl)[C@H]2OCC(=O)[C@H]21)C1CCCCC1)c1ncc(-c2ccncc2F)s1 [Example 50, N-((S)-2-((3aS,6S,6aS)-6-chloro-3-oxotetrahydro-2H-furo[3,2-b]pyrrol-4(5H)-yl)-1-cyclohexyl-2-oxoethyl)-5-(3-fluoropyridin-4-yl)thiazole-2-carboxamide]	66.6	–	15	0.011	0.733
Cc1cc(-c2cnc(C(=O)N[C@H](C(=O)N3C[C@H](Cl)[C@H]4OCC(=O)[C@H]43)C3CCCCC3)s2)ccn1 [Example 51, N-((S)-2-((3aS,6S,6aS)-6-chloro-3-oxotetrahydro-2H-furo[3,2-b]pyrrol-4(5H)-yl)-1-cyclohexyl-2-oxoethyl)-5-(2-methylpyridin-4-yl)thiazole-2-carboxamide]	24.7	–	6	0.007	0.173
O=C(N[C@H](C(=O)N1C[C@H](Cl)[C@H]2OCC(=O)[C@H]21)C1CCCCC1)c1ncc(-c2ccc(Cl)nc2)s1 [Example 52, N-((S)-2-((3aS,6S,6aS)-6-chloro-3-oxotetrahydro-2H-furo[3,2-b]pyrrol-4(5H)-yl)-1-cyclohexyl-2-oxoethyl)-5-(6-chloropyridin-3-yl)thiazole-2-carboxamide]	14.5	–	7	0.014	0.203
O=C(N[C@H](C(=O)N1C[C@H](Cl)[C@H]2OCC(=O)[C@H]21)C1CCCCC1)c1sc(-c2cncnc2)cc1F [Example 53, N-((S)-2-((3aS,6S,6aS)-6-chloro-3-oxotetrahydro-2H-furo[3,2-b]pyrrol-4(5H)-yl)-1-cyclohexyl-2-oxoethyl)-3-fluoro-5-(pyrimidin-5-yl)thiophene-2-carboxamide]	8.9	–	40	0.034	0.302
